Patent US20120077828A1, “CHEMICAL COMPOUNDS” (priority 2010, published 2012)

Biological target: T1, PERK (Homo sapiens, UniProt Q9NZJ5)
T1 construct: GST-PERK (536-1116) cytoplasmic domain was purchased from Invitrogen; purchased Invitrogen PV5106
T1 sequence (Q9NZJ5 536-1116): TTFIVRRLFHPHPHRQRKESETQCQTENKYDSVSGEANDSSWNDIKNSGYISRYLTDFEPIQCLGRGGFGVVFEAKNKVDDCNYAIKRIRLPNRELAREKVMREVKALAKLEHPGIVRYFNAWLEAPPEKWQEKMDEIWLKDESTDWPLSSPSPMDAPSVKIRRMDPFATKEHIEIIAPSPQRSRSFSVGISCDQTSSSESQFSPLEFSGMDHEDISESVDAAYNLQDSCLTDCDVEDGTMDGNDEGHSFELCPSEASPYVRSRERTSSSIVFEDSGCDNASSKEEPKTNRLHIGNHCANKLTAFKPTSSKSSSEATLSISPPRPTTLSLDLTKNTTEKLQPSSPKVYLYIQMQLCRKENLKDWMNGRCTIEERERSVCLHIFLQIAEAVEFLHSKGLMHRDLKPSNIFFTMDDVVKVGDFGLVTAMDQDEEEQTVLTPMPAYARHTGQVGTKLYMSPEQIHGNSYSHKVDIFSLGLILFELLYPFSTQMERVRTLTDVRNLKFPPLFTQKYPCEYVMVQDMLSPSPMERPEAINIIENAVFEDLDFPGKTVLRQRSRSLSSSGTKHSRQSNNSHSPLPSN
Assay: PKR-like Endoplasmic Reticulum Kinase (PERK) Assay (HTRF Format)
Type: biochemical
Details: average, in at least one set of experimental runs; read-out: average pIC50 value against PERK (converted)
Experimental: PKR-like Endoplasmic Reticulum Kinase (PERK) Assay (HTRF Format)
Source of substrate: elF2α: 6-His-Full-length human elF2α is purified from baculovirus expression in Sf9 insect cells. The elF2 protein is buffer exchanged by dialysis into PBS, chemically modified by NHS-LC-Biotin and then buffer exchanged by dialysis into 50 mm TRIS pH 7.2/250 mM NaCl/5 mM DTT. Protein is aliquoted and stored at −80° C.
Assays were performed by adding GST-PERK solution to assay plates containing compounds and pre-incubated for 30 minutes at room temperature. The reaction is initiated by the addition of ATP and EIF2α substrate solution. Quench solution is added following a one hour incubation at room temperature. The plates are covered for 2 hours at room temperature prior to determination of signal. The resulting signal is quantified on a Viewlux Reader (PerkinElmer). The APC Signal is normalized to the Europium signal by transforming the data through an APC/Eu calculation.
Compounds under analysis were dissolved in DMSO to 1.0 mM and serially diluted 1 to 3 with DMSO through eleven dilutions. 0.1 μl of each concentration was transferred to the corresponding well of an assay plate. This creates a final compound concentration range from 0.00017 to 10 μM.
The data for concentration response curves were plotted as % Inhibition calculated with the data reduction formula 100*(1−(U1−C2)/(C1−C2)) versus concentration of compound where U is the unknown value, C1 is the average control value obtained for 1% DMSO, and C2 is the average control value obtained for 0.1 M EDTA. Data were fitted with a curve described by:
where A is the minimum y, B is the maximum y concentration [M], D is the slope factor, and x is the log10 of the compound.
In the above data, pIC50 is defined as −log(IC50) where the IC50 value is expressed in molar units.

| SMILES | IC50 |
| --- | --- |
| Cc1cccc(CC(=O)N2CCc3cc(-c4nn(C(C)C)c5ncnc(N)c45)ccc32)c1 [Example 82, 1-(1-methylethyl)-3-{1-[(3-methylphenyl)acetyl]-2,3-dihydro-1H-indol-5-yl}-1H-pyrazolo[3,4-d]pyrimidin-4-amine] | ≤ 2.51 nM |
| Cn1cc(-c2ccc3c(c2)CCN3C(=O)Cc2cc(F)cc(F)c2)c2c(N)ncnc21 [Example 89, 5-{1-[(3,5-difluorophenyl)acetyl]-2,3-dihydro-1H-indol-5-yl}-7-methyl-7H-pyrrolo[2,3-d]pyrimidin-4-amine] | ≤ 1 nM |
| Cn1cc(-c2ccc3c(c2)CCN3C(=O)Cc2cc(F)cc(F)c2F)c2c(N)ncnc21 [Example 90, 7-methyl-5-{1-[(2,3,5-trifluorophenyl)acetyl]-2,3-dihydro-1H-indol-5-yl}-7H-pyrrolo[2,3-d]pyrimidin-4-amine] | ≤ 0.316 nM |
| Cc1cccc(CC(=O)N2CCc3cc(-c4cn(C5CNC5)c5ncnc(N)c45)ccc32)c1 [Example 92, 7-(3-azetidinyl)-5-{1-[(3-methylphenyl)acetyl]-2,3-dihydro-1H-indol-5-yl}-7H-pyrrolo[2,3-d]pyrimidin-4-amine] | ≤ 1 nM |
| Cn1cc(-c2ccc3c(c2)CCN3C(=O)Cc2ccc(F)cc2)c2c(N)ncnc21 [Example 93, 5-{1-[(4-fluorophenyl)acetyl]-2,3-dihydro-1H-indol-5-yl}-7-methyl-7H-pyrrolo[2,3-d]pyrimidin-4-amine] | ≤ 2.51 nM |
| Cn1cc(-c2ccc3c(c2)CCN3C(=O)Cc2ccc(F)cc2F)c2c(N)ncnc21 [Example 102, 5-{1-[(2,4-difluorophenyl)acetyl]-2,3-dihydro-1H-indol-5-yl}-7-methyl-7H-pyrrolo[2,3-d]pyrimidin-4-amine] | ≤ 2.51 nM |
| Cc1cc(C)n(CC(=O)N2CCc3cc(-c4cn(C)c5ncnc(N)c45)ccc32)n1 [Example 111, 5-{1-[(3,5-dimethyl-1H-pyrazol-1-yl)acetyl]-2,3-dihydro-1H-indol-5-yl}-7-methyl-7H-pyrrolo[2,3-d]pyrimidin-4-amine] | ≤ 1 nM |
| Cn1cc(-c2ccc3c(c2F)CCN3C(=O)Cc2cc(F)ccc2F)c2c(N)ncnc21 [Example 114, 5-{1-[(2,5-difluorophenyl)acetyl]-4-fluoro-2,3-dihydro-1H-indol-5-yl}-7-methyl-7H-pyrrolo[2,3-d]pyrimidin-4-amine] | ≤ 0.316 nM |
| Cc1cccc(CC(=O)N2CCc3cc(-c4cn(C)c5ncnc(N)c45)ccc32)n1 [Example 121, 7-methyl-5-{1-[(6-methyl-2-pyridinyl)acetyl]-2,3-dihydro-1H-indol-5-yl}-7H-pyrrolo[2,3-d]pyrimidin-4-amine] | ≤ 2.51 nM |
| Cn1cc(-c2ccc3c(c2)CCN3C(=O)Cc2cccc(C(F)(F)F)n2)c2c(N)ncnc21 [Example 125, 7-methyl-5-(1-{[6-(trifluoromethyl)-2-pyridinyl]acetyl}-2,3-dihydro-1H-indol-5-yl)-7H-pyrrolo[2,3-d]pyrimidin-4-amine] | ≤ 1 nM |
| Nc1ncnc2c1c(-c1ccc3c(c1)CCN3C(=O)Cc1cccc(C(F)(F)F)c1)cn2CCN1CCOCC1 [Example 127, 7-[2-(4-morpholinyl)ethyl]-5-(1-{[3-(trifluoromethyl)phenyl]acetyl}-2,3-dihydro-1H-indol-5-yl)-7H-pyrrolo[2,3-d]pyrimidin-4-amine] | ≤ 0.316 nM |
| CN(C)CCn1cc(-c2ccc3c(c2)CCN3C(=O)Cc2cccc(C(F)(F)F)c2)c2c(N)ncnc21 [Example 134, 7-[2-(dimethylamino)ethyl]-5-(1-{[3-(trifluoromethyl)phenyl]acetyl}-2,3-dihydro-1H-indol-5-yl)-7H-pyrrolo[2,3-d]pyrimidin-4-amine] | ≤ 1 nM |
| Cc1cccc(CC(=O)N2CCc3c2ccc(-c2cn(C)c4ncnc(N)c24)c3F)n1 [Example 136, 5-{4-fluoro-1-[(6-methyl-2-pyridinyl)acetyl]-2,3-dihydro-1H-indol-5-yl}-7-methyl-7H-pyrrolo[2,3-d]pyrimidin-4-amine] | ≤ 1 nM |
| Cn1cc(-c2ccc3c(c2F)CCN3C(=O)Cc2cccc(C(F)(F)F)n2)c2c(N)ncnc21 [Example 137, 5-(4-fluoro-1-{[6-(trifluoromethyl)-2-pyridinyl]acetyl}-2,3-dihydro-1H-indol-5-yl)-7-methyl-7H-pyrrolo[2,3-d]pyrimidin-4-amine] | ≤ 1 nM |
| Cc1cc(C)n(CC(=O)N2CCc3c2ccc(-c2cn(C)c4ncnc(N)c24)c3F)n1 [Example 138, 5-{1-[(3,5-dimethyl-1H-pyrazol-1-yl)acetyl]-4-fluoro-2,3-dihydro-1H-indol-5-yl}-7-methyl-7H-pyrrolo[2,3-d]pyrimidin-4-amine] | ≤ 2.51 nM |

Other lines, results leading:

| IC50 | SMILES |
| --- | --- |
| ≤ 0.316 nM | Cn1cc(-c2ccc3c(c2)CCN3C(=O)Cc2cc(Cl)ccc2F)c2c(N)ncnc21 [Example 100, 5-{1-[(5-chloro-2-fluorophenyl)acetyl]-2,3-dihydro-1H-indol-5-yl}-7-methyl-7H-pyrrolo[2,3-d]pyrimidin-4-amine] |
| ≤ 0.316 nM | Cn1cc(-c2ccc3c(c2F)CCN3C(=O)Cc2ccccc2)c2c(N)ncnc21 [Example 112, 5-[4-fluoro-1-(phenylacetyl)-2,3-dihydro-1H-indol-5-yl]-7-methyl-7H-pyrrolo[2,3-d]pyrimidin-4-amine] |
| ≤ 2.51 nM | Nc1ncnc2occ(-c3ccc4c(c3)CCN4C(=O)Cc3cc(F)cc(C(F)(F)F)c3)c12 [Example 119, 5-(1-{[3-fluoro-5-(trifluoromethyl)phenyl]acetyl}-2,3-dihydro-1H-indol-5-yl)furo[2,3-d]pyrimidin-4-amine] |
| ≤ 0.316 nM | Cc1cccc(CC(=O)N2CCc3cc(-c4cncc5[nH]nc(N)c45)ccc32)c1 [Example 130, 4-{1-[(3-methylphenyl)acetyl]-2,3-dihydro-1H-indol-5-yl}-1H-pyrazolo[3,4-c]pyridin-3-amine] |
| ≤ 1 nM | Nc1ncc(Cl)c2occ(-c3ccc4c(c3)CCN4C(=O)Cc3cc(F)ccc3F)c12 [Example 131, 7-chloro-3-{1-[(2,5-difluorophenyl)acetyl]-2,3-dihydro-1H-indol-5-yl}furo[3,2-c]pyridin-4-amine] |
| ≤ 1 nM | CN1CC(n2cc(-c3ccc4c(c3)CCN4C(=O)Cc3cccc(C(F)(F)F)c3)c3c(N)ncnc32)C1 [Example 133, 7-(1-methyl-3-azetidinyl)-5-(1-{[3-(trifluoromethyl)phenyl]acetyl}-2,3-dihydro-1H-indol-5-yl)-7H-pyrrolo[2,3-d]pyrimidin-4-amine] |
| ≤ 0.316 nM | Cn1cc(-c2ccc3c(c2F)CCN3C(=O)Cc2ccc(F)cc2)c2c(N)ncnc21 [Example 141, 5-{4-fluoro-1-[(4-fluorophenyl)acetyl]-2,3-dihydro-1H-indol-5-yl}-7-methyl-7H-pyrrolo[2,3-d]pyrimidin-4-amine] |
| ≤ 1 nM | Cn1nc(N)c2c(-c3ccc4c(c3)CCN4C(=O)Cc3cccc(C(F)(F)F)c3)cncc21 [Example 143, 1-methyl-4-(1-{[3-(trifluoromethyl)phenyl]acetyl}-2,3-dihydro-1H-indol-5-yl)-1H-pyrazolo[3,4-c]pyridin-3-amine] |
| ≤ 0.316 nM | Nc1ncnc2c1c(-c1ccc3c(c1)CCN3C(=O)Cc1cc(F)ccc1F)cn2C1CNC1 [Example 144, 7-(3-azetidinyl)-5-{1-[(2,5-difluorophenyl)acetyl]-2,3-dihydro-1H-indol-5-yl}-7H-pyrrolo[2,3-d]pyrimidin-4-amine] |
| ≤ 2.51 nM | NCCc1cnc(N)c2c(-c3ccc4c(c3F)CCN4C(=O)Cc3cc(F)ccc3F)coc12 [Example 146, 7-(2-aminoethyl)-3-{1-[(2,5-difluorophenyl)acetyl]-4-fluoro-2,3-dihydro-1H-indol-5-yl}furo[3,2-c]pyridin-4-amine] |
| ≤ 0.316 nM | Nc1ncnc2[nH]cc(-c3ccc4c(c3)CCN4C(=O)Cc3cccc(C(F)(F)F)c3)c12 [Example 148, 5-(1-{[3-(trifluoromethyl)phenyl]acetyl}-2,3-dihydro-1H-indol-5-yl)-1H-pyrrolo[2,3-d]pyrimidin-4-amine] |
